The values that follow come from patent EP2468746A1, “Benzothiazinone compounds and their use as anti-tuberculosis agents” (priority 2010, dated 2012).

In brackets after ≈: the same amount, converted by molar mass. Several values for one entry are separate records, joined by “and”; a condition that tells them apart may be missing. Identical values can stand only once. Like-named read-outs stand apart in the source and are kept apart here.

One data set deals with M smeg 5G987. The data set is described as follows: MIC assay, broth microdilution with resazurin. The note with it: for MIC: Mycolicibacterium smegmatis. The class given is cell-based, Mycobacterium smegmatis. Here is the method:
(§1) The protocol used is based upon that detailed by the CLSI (Clinical and Laboratory Standards Institute (CLSI) 2006. Methods for Dilution Antimicrobial Susceptibility Tests for Bacteria that Grow Aerobically; Approved Standard. 7th edn. Document M7-A6. Clinical and Laboratory Standards Institute, Wayne, PA.).
(§2) The compounds are dissolved in DSMO in a concentration of 1 mg/ml and further diluted in water to achieve the final concentration, which is used as the highest concentration for determination of MIC. This highest concentration is filled in the first row of the microtiter plate and further diluted in the culture medium for the mycobacteria (Mueller-Hinton Broth and Middlebrook 7H9 broth). All solutions are freshly prepared under sterile conditions.
(§3) Ciprofloxacin, Isoniazid and Rifampicin can be used as reference compounds for control of the assay as well as a solvent control.
(§4) Minimal inhibitory concentrations (MIC) are determined according to the CLSI guidelines using the broth microdilution method. 50 µl of the compound solution are serially diluted directly in the microtiter plate by factor two with MHB or 7H9 media. Then the wells are inocalated with 50 µl of test organisms in MHB/7H9 to give a final concentration of 5x10^5 CFU/ml. After that the microtiter plates are incubated at 37°C for 48 h. Then 30 µl of resazurin solution is added to each well and plates are allowed to incubate at 37°C for additional 24 hrs. A change from blue to pink colour indicates reduction of resazurin and therefore bacterial growth. The MIC is defined as the lowest drug concentration that prevents this colour change.
(§5) Resazurin salt powder (Sigma) is prepared at 0.01 % (wt/vol) in distilled water, sterilized by filtration through a 0.22 µm membrane and stored at 4°C for a week.
(Dilution methods test growth across graded concentrations, often in twofold steps.)

The subject of another data set is M aurum SB66. The data set is described as follows: MIC assay, broth microdilution with resazurin. The note with it: for activity against M. aureum strain SB66: strain resistant against agents that target decaprenylphosporyl-β-D-ribose 2'-epimerase. Format: cell-based. On the procedure: as §1, §2, §3, §4, §5
The test system of a further data set is M fort B. The data set is described as follows: MIC assay, broth microdilution with resazurin. The class given is cell-based. The note with it: for MIC: read-out: MIC M fort B. On the procedure:
as §1, §2, §3, §4, §5

The next data set relates to M vaccae 10670. The data set is described as follows: MIC assay, broth microdilution with resazurin. The class given is cell-based. On the procedure:
as §1, §2, §3, §4, §5

Data set [1] deals with Mycobacterium smegmatis, ATCC 700084. The data set is described as follows: MIC assay, broth microdilution with resazurin. The class given is cell-based. The following applies: Mycolicibacterium smegmatis, ATCC700084; head carries superscript IMB; read-out: MIC M smeg 700084. Here is the method: as §1, §2, §3, §4, §5
In a further data set the test system is M tb MDR (BACTEC). The data set is described as follows: microbe, parasite or virus in culture. The class given is cell-based, M. tuberculosis. The following applies: for MIC: Mycobacterium tuberculosis.
For a further data set, the system named is HUVEC. The class given is cell-based. On the procedure:
(§6) Test cells (see Table below for details) are seeded as 1x10^4 cells per well in a clear 96 well plate in a final volume of 100 µl in media. Cells are incubated for 24 hours at 37°C, 5% CO2 to allow cells to attach to the plates.
(§7) The compounds of the present invention are added in triplicate in a range of concentrations. For compound A e.g., the concentration started from 100µM,...and then 2-fold diluted to 0.78µM. Colistin and Tamoxifen were applied as controls.
(§8) The cells are incubated for 24 hours at 37°C, 5% CO2. MTT (3-(4,5-Dimethylthiazol-2-yl)-2,5-diphenyltetrazolium bromide) (Sigma) (dissolved in PBS) is added to each well to a final concentration of 0.4 mg/mL. The plate is then incubated for 1 hours at 37°C, 5% CO2. Media is removed, and crystals are resuspended in 60 µl of DMSO. Shaking the plate at room temperature for 10 minutes dissolves the formazan crystals, and the absorbance is then read at 570 nm.
(§9) Results are presented as the average percentage of control ± SD for each set of duplicate wells using the following equation: Percent Viability = (ABSTEST - ABS5%DMSO/ / ABSUNTREATED -ABS5%DMSO)*100. A 1% DMSO 'vehicle' control is also included to monitor the effect of DMSO on the cells (all pure compounds are diluted in 10 % DMSO, so final assay concentration is 1%).

The next data set concerns K-562. Format: cell-based. Here is the method: as §6, §7, §8, §9
The next data set relates to HEK293. The data set is described as follows: Cytotoxicity assay (MTT). The class given is cell-based. The note with it: 24 hours, read-out: CytoTox HEK293 (CC50). On the procedure:
as §6, §7, §8, §9

In another data set the test system is HeLa. The data set is described as follows: Cytotoxicity assay (MTT). The following applies: 24 hours, read-out: CytoTox HeLa (CC50). The class given is cell-based. Here is the method: as §6, §7, §8, §9
The subject of another data set is HepG2. The data set is described as follows: Cytotoxicity assay (MTT). Format: cell-based. The note with it: 24 hours, read-out: CytoTox HepG2 (CC50). Here is the method:
as §6, §7, §8, §9

Another data set in a line: Stability in plasma (H). The following applies: first value of the cell.
A short description of the next data set: Stability in plasma (M). The following applies: second value of the cell.
In a further data set the test system is mycobacteria. The note with it: comparison values, strain not named; cited from earlier work.
Another data set in a line: Cytotoxicity assay (MTT). The class given is cell-based. The note with it: human. Here is the method: as §6, §7, §8, §9
A further data set deals with M. tuberculosis H37Rv. The data set is described as follows: BTZ efficacy in the acute animal model (mouse infection). The following applies: BALB/c mice, 5 x 10^6 CFU, gavage 37.5 or 300 mg per kg, once daily, 5 times/week, four weeks. The class given is in vivo. On the procedure: BTZ efficacy in vivo can be determined in a standard mouse infection model according to e.g. the following protocol. BALB/c mice are infected with M. tuberculosis H37Rv at a bacillary load of 5 x 10^6 CFU by injection into the eye venous sinus, 10 BALB/c mice per group. The first day of the treatment is day 8 after the infection. Mice are dosed by gavage with 37.5, or 300 mg of BTZ, per kg body weight, in carboxymethyl cellulose formulation (0.25%), once daily, 5 times/week, for four weeks. Negative control mice died 25-28 days after infection.

Another data set in a line: physchem. The following applies: 20 °C, pH 7.4, aqueous buffer, kinetic from dmso stock.
Where [2] appears, read: 5G987, read-out: MIC M smeg 5G987.

The CC50 is the concentration that lowers cell viability or growth by half. With `CC1COC2(CCN(c3nc(=O)c4cc(C(F)(F)F)cc([N+](=O)[O-])c4s3)CC2)O1` (stereo not shown) [Cpd 1 of WO 2007/134625, reference compound], the “MIC M smeg 5G987” value against M smeg 5G987 came to 3.12 ng/mL (≈ 0.00723 µM). Besides, the “MIC M aurum SB66” value against M aurum SB66 is recorded as more than 100 µg/mL. The “activity against M. aureum strain SB66” value in the data set on M aurum SB66 is on record as “neither compound A nor the Reference compound I are active”. Besides, the “MIC M fort B” value in the data set with M fort B came to 1.56 ng/mL (≈ 0.00362 µM). Further, the MIC in the data set with M vaccae 10670 was determined as 0.4 ng/mL (≈ 0.000927 µM); in data set [1] it was 0.008 µg/mL (≈ 0.0185 µM). For the same compound, in the data set on M tb MDR (BACTEC), the “MIC M tb MDR (BACTEC)” value is not above 0.015 µg/mL. Also, the “CytoTox HUVEC (GC50)” value in the data set with HUVEC turned out to be 8 µM. Also, in the data set on K-562, the “CytoTox K-562 (GC50)” value came to 11 µM. The values for the CC50 in the data set on HEK293, with HeLa and in the data set with HepG2 were more than 100 µM, more than 50 µM and more than 100 µM, respectively. Besides, the “Stability Plasma (H/M)” value in the data set “Stability in plasma (H)” turned out to be 107%; in the data set “Stability in plasma (M)”, 97%.

As for `CC[C@@H](CO)NCCN[C@@H](CC)CO` [ethambutol], the “MIC of the existing TB drugs” value with mycobacteria was 1 to 5 µg/mL.

On to `O=c1nc(N2CCN(Cc3ccccc3)CC2)sc2c([N+](=O)[O-])cc(C(F)(F)F)cc12` [Cpd 7 of WO 2009/010163, reference compound], for which the figures for the MIC with M smeg 5G987 (setting [2]) and with M fort B were 0.05 µg/mL and 0.05 µg/mL (≈ 0.111 µM), respectively.

In general, solubility refers to the dissolved amount per volume that the medium holds. Higher therefore signals much dissolved substance. Regarding `CN(C(=O)CN1CCN(c2nc(=O)c3cc(C(F)(F)F)cc([N+](=O)[O-])c3s2)CC1)c1ccccc1` [Compound A], the MIC is 0.025 µM in the data set with M smeg 5G987 (5G987, molar value in brackets, strain not named, read-out: MIC against Mycobacterium smegmatis); 0.0125 µg/mL in the data set with M smeg 5G987 (setting [2]); 0.012 µg/mL with M smeg 5G987 (5G987, read-out: MIC against Mycobacterium smegmatis); more than 100 µg/mL against M aurum SB66; 0.0125 µg/mL (≈ 0.0246 µM) in the data set with M fort B; 3.12 ng/mL (≈ 0.00615 µM) against M vaccae 10670. In addition, the MIC is 0.015 µg/mL (≈ 0.0296 µM) in data set [1]; 0.03 µg/mL (≈ 0.0591 µM) with M tb MDR (BACTEC) (read-out: MIC M tb MDR (BACTEC)); 0.03 µg/mL and 0.059 µM with M tb MDR (BACTEC) (read-out: MIC against MDR M. tuberculosis). Further, in the data set with M aurum SB66, the “activity against M. aureum strain SB66” value is “neither compound A nor the Reference compound I are active”. In addition, the “CytoTox HUVEC (GC50)” value in the data set on HUVEC (human, 24 h) stood at 18 µM. Also, the “CytoTox K-562 (GC50)” value in the data set with K-562 (human, 24 h) was found to be 30 µM. Moreover, the CC50 at 24 h is more than 100 µM in “Cytotoxicity assay (MTT)” (HEK293 cells, read-out: CytoTox HEK293 (CC50)); 39 µM in the data set “Cytotoxicity assay (MTT)” (HeLa cells, read-out: CytoTox HeLa (CC50)); more than 100 µM in the data set “Cytotoxicity assay (MTT)” (HepG2 cells, read-out: CytoTox HepG2 (CC50)). For the same compound, the “efficacy, life of the treated mice” value with M. tuberculosis H37Rv is “very effective in this model and significantly prolonged the life of the treated mice”. Besides, the solubility at 20 h in the data set “physchem” came to 12 µM (≈ 6.09 µg/mL). For the same compound, the “Stability Plasma (H/M)” value in “Stability in plasma (H)” was 95%; in the data set “Stability in plasma (M)”, 115%.

For `NNC(=O)c1ccncc1` [isoniazid], the “MIC of the existing TB drugs” value in the data set on mycobacteria is 0.02 to 0.2 µg/mL.
